Experiments:
Candida albicans = test: administration to the subject with Candidemia (Candida albicans); assay type: in vivo, human
C. glabrata isolate = test: T2MR-based AST, real-time PCR of housekeeping gene as proxy for growth; assay type: cell-based, Candida glabrata; details: media with pre-determined levels of agent, Example 4
Method: A blood sample is obtained from a subject suspected to be suffering from Candidemia. The blood sample obtained from the patient is subjected to a T2MR-based detection method, for example, the method described in Example 22 of WO 2012/054639 in conjunction with a T2Dx® device. Briefly, PCR is performed using a forward primer that includes the oligonucleotide sequence 5′-GGCATGCCTGTTTGAGCGTC-3′ (SEQ ID NO: 13) and a reverse primer that includes the oligonucleotide sequence 5′-GCTTATTGATATGCTTAAGTTCAGCGGGT-3′ (SEQ ID NO: 14). Magnetic particles conjugated individually to the capture probes described in Table 1 are used to test for the presence of Candida albicans, Candida glabrata, Candida krusei, Candida parapsilosis, and Candida tropicalis. In this example, Candida glabrata is identified as being present in the subject's blood sample within 3 h from the start of the assay.
Based on the T2MR-based detection and identification of Candida glabrata in the subject's blood, a subsequent blood draw is taken directly to media that contain either no antimicrobial agents or pre-determined levels of fluconazole, itraconazole, amphotericin B, or caspofungin. […]

C. albicans isolate = test: as above; assay type: cell-based, Candida albicans; details: media with pre-determined levels of agent, Example 5
Method: A blood sample is obtained from a subject suspected to be suffering from Candidemia. The blood sample obtained from the patient is subjected to a T2MR-based detection method, for example, as described above in Example 4. In this example, Candida albicans is identified as being present in the subject's blood sample within 3 h from the start of the assay.
Based on the T2MR-based detection and identification of Candida albicans in the subject's blood, a subsequent blood draw is taken directly to media that contain either no antimicrobial agents or pre-determined levels of antimicrobial agents such as fluconazole, itraconazole, amphotericin B, and caspofungin. Aliquots are taken from these media at time intervals, and the aliquots are subjected to T2MR-based real-time PCR is performed as described, for example, in Example 19 of WO 2012/054639, to detect the expression level of the multiple drug resistance gene MDR1 as well as a housekeeping gene such as beta-actin (ACT1) as a proxy for growth of the C. albicans isolate in the media. […] A growth curve is made by plotting the T2 signal over time.

Candida albicans isolate = test: AST testing of isolated colonies, agar-based AST method (e.g., ETEST) or full panel AST device (e.g., VITEK 2); assay type: cell-based; details: Candida albicans isolate from subject's blood, Example 2
Method: (§1) A blood sample is obtained from a subject suspected to be suffering from Candidemia. A portion of the blood sample is used to inoculate a blood culture bottle (e.g., a BD BACTEC™ aerobic blood culture bottle). The blood culture bottles are incubated as recommended by the manufacturer. In parallel, an aliquot of the blood sample obtained from the patient is subjected to a T2MR-based detection method, for example, as described in Example 1 above. In this example, the T2MR-based method identifies Candida albicans as being present in the blood sample.
Next, based on the identification of Candida albicans in the blood sample, the blood culture bottle is sampled by lysis filtration or lysis centrifugation followed by plating of the cell pellet on to Samouraud Glucose media, thereby encouraging growth of Candida albicans and early growth of the isolated colonies. These colonies are subjected to AST testing, either using an agar-based AST method (e.g., ETEST®) or a full panel AST device (e.g., VITEK® 2). Several appropriate anti-fungal drugs are tested, e.g., fluconazole, itraconazole, amphotericin B, micafungin, voriconazole, and caspofungin.

Candida glabrata = test: administration to the subject with Candidemia (Candida glabrata); assay type: in vivo, human; details: appropriate dose, subject with Candidemia (C. glabrata), Example 4
S. aureus isolate [1] = test: growth on chromogenic media (e.g., CHROMAGAR MRSA); assay type: cell-based; details: Example 3
Method: as §1, with “from bacteremia.” for “from Candidemia.”, “example, the method” for “example, as”, “Example 22 of WO 2012/054639 in conjunction with a T2Dx® device.” for “Example 1 above.”, “identifies S. aureus” for “identifies Candida albicans”, “blood sample within 3 hours from the start of the assay.” for “blood sample.”
(§2) Next, based on the identification of S. aureus in the blood sample, the blood culture bottle is sampled by lysis filtration or lysis centrifugation followed by plating of the cell pellet on to chromogenic media (e.g., CHROMAGAR™ MRSA (Chromagar)) or directly on to an agar-based antimicrobial gradient test (e.g., an ETEST®) in order to test whether the S. aureus isolate from the subject's blood is sensitive to oxacillin, vancomycin, trimethoprim-sulfamethoxazole (BACTRIM™), doxycycline, daptomycin, and linezolid. Additionally, T2MR-based real-time PCR is performed as described, for example, in Example 19 of WO 2012/054639, is used to determine the expression level of antibiotic resistance markers such as mecA. […]

S. aureus isolate [2] = test: T2MR-based AST with direct cell detection by vancomycin-conjugated magnetic nanoparticles; details: media with pre-determined levels of agent, Example 6
Method: as §1, with “In one such example, a blood” for “A blood”, “from bacteremia.” for “from Candidemia.”, “example, the method” for “example, as”, “Example 22 of WO 2012/054639 in conjunction with a T2Dx® device.” for “Example 1 above.”, “identifies S. aureus” for “identifies Candida albicans”, “blood sample within 3 hours from the start of the assay.” for “blood sample.”
Based on the T2MR-based detection and identification of S. aureus in the subject's blood, a subsequent blood draw is taken directly to media that contain either no antimicrobial agents or pre-determined levels of oxacillin, vancomycin, trimethoprim-sulfamethoxazole (BACTRIM™), doxycycline, daptomycin, or linezolid. Aliquots are taken from these media at time intervals, and the aliquots are subjected to T2MR-based direct detection of S. aureus cells, as described, for example, in Example 4 of International Patent Publication No. WO 2012/129281. S. aureus cells are detected by labeling with magnetic nanoparticles. […]

S. aureus = test: administration to the subject with bacteremia (S. aureus); assay type: in vivo, human
S. aureus isolate [3] = test: agar-based antimicrobial gradient test (e.g., ETEST); assay type: cell-based; details: S. aureus isolate from subject's blood, Example 3
Method: as §1, with “from bacteremia.” for “from Candidemia.”, “example, the method” for “example, as”, “Example 22 of WO 2012/054639 in conjunction with a T2Dx® device.” for “Example 1 above.”, “identifies S. aureus” for “identifies Candida albicans”, “blood sample within 3 hours from the start of the assay.” for “blood sample.”
as §2

C[C@@H]1[C@H](O)[C@@H](C)/C=C/C=C/C=C/C=C/C=C/C=C/C=C/[C@H](O[C@@H]2O[C@H](C)[C@@H](O)[C@H](N)[C@@H]2O)C[C@@H]2O[C@](O)(C[C@@H](O)C[C@@H](O)[C@H](O)CC[C@@H](O)C[C@@H](O)CC(=O)O[C@H]1C)C[C@H](O)[C@H]2C(=O)O [amphotericin B]
treatment outcome in the subject after switch from fluconazole (Candida albicans; MDR1 expression elevated after fluconazole, therapy switched, Example 5): successful in treating the subject

OC(Cn1cncn1)(Cn1cncn1)c1ccc(F)cc1F [fluconazole]
antimicrobial susceptibility of the isolate, growth curve of T2 signal over time (C. glabrata isolate): particularly sensitive | antimicrobial susceptibility of the isolate, growth curve of T2 signal over time (C. albicans isolate): particularly sensitive | antimicrobial susceptibility of the isolate (Candida albicans isolate): particularly sensitive | treatment outcome in the subject (Candida glabrata): treating the subject's Candidemia | treatment outcome in the subject (Candida albicans; appropriate dose, subject with Candidemia (C. albicans)): treating the subject's Candidemia

COc1cccc(OC)c1C(=O)N[C@@H]1C(=O)N2[C@@H]1SC(C)(C)[C@@H]2C(=O)O [methicillin]
antimicrobial resistance of the isolate, based on the color of the colonies (S. aureus isolate [1]): resistant

CN[C@H](CC(C)C)C(=O)N[C@H]1C(=O)N[C@@H](CC(N)=O)C(=O)N[C@H]2C(=O)N[C@H]3C(=O)N[C@H](C(=O)N[C@H](C(=O)O)c4cc(O)cc(O)c4-c4cc3ccc4O)[C@H](O)c3ccc(c(Cl)c3)Oc3cc2cc(c3O[C@@H]2O[C@H](CO)[C@@H](O)[C@H](O)[C@H]2O[C@H]2C[C@](C)(N)[C@H](O)[C@H](C)O2)Oc2ccc(cc2Cl)[C@H]1O [vancomycin]
antimicrobial susceptibility of the isolate, growth curve of T2 signal over time (S. aureus isolate [2]): particularly sensitive | treatment outcome in the subject (S. aureus): treating the subject's bacteremia

trimethoprim-sulfamethoxazole
treatment outcome in the subject (S. aureus): treating the bacteremia | antimicrobial susceptibility of the isolate (S. aureus isolate [3]): sensitive

— patent US20190032104A1, “RAPID ANTIMICROBIAL SUSCEPTIBILITY TESTING USING HIGH-SENSITIVITY DIRECT DETECTION METHODS” (T2 Biosystems, Inc., priority 2016, published 2019)
